Where “and” joins values, the source holds several entries; their conditions need not be identical. Equal entries are not always repeated. Inconclusive results and toxic doses are left out. Rule as the data show it: active = T/C of 150% or more; inactive = T/C below 125%.
System: L1210 leukemia ip in BDF1 mice, survival T/C
Experiment: NCI In Vivo Anticancer Drug Screen. Data for tumor model L1210 Leukemia (intraperitoneal) in B6D2F1 (BDF1) mice
Conditions: endpoint: mean survival time, higher = longer survival
Method in brief: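 Transplantable tumor model; survival measured in treated vs vehicle control mice. Value = treated/control.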

[1] = dose: 100.0 mg/kg/injection, schedule: Q04DX003 (ip), vehicle: Klucel (hydroxypropylcellulose) (HPC)
[2] = dose: 200.0 mg/kg/injection, schedule: Q04DX003 (ip), vehicle: Klucel (hydroxypropylcellulose) (HPC)
[3] = dose: 400.0 mg/kg/injection, schedule: Q04DX003 (ip), vehicle: Klucel (hydroxypropylcellulose) (HPC)
[4] = dose: 100.0 mg/kg/injection, schedule: Q01DX001 (ip), vehicle: other
[5] = dose: 200.0 mg/kg/injection, schedule: Q01DX001 (ip), vehicle: other
[6] = dose: 400.0 mg/kg/injection, schedule: Q01DX001 (ip), vehicle: other
[7] = dose: 100.0 mg/kg/injection, schedule: Q01DX001 (ip), vehicle: saline
[8] = dose: 200.0 mg/kg/injection, schedule: Q01DX001 (ip), vehicle: saline
[9] = dose: 100.0 mg/kg/injection, schedule: Q04DX002 (ip), vehicle: Klucel (hydroxypropylcellulose) (HPC)
[10] = dose: 200.0 mg/kg/injection, schedule: Q04DX002 (ip), vehicle: Klucel (hydroxypropylcellulose) (HPC)

Measured: T/C

CCCCCCN1C(C)C1C(C)C (centres undefined)
inactive: dose: 20.0 mg/kg/injection, schedule: Q01DX009 (ip), vehicle: saline 114 % of control | dose: 20.0 mg/kg/injection, schedule: Q04DX003 (ip), vehicle: Klucel (hydroxypropylcellulose) (HPC) 105 % of control | dose: 40.0 mg/kg/injection, schedule: Q01DX009 (ip), vehicle: saline 115 % of control | dose: 40.0 mg/kg/injection, schedule: Q04DX003 (ip), vehicle: Klucel (hydroxypropylcellulose) (HPC) 100 % of control | dose: 80.0 mg/kg/injection, schedule: Q01DX009 (ip), vehicle: saline 107 % of control | dose: 80.0 mg/kg/injection, schedule: Q04DX003 (ip), vehicle: Klucel (hydroxypropylcellulose) (HPC) 105 % of control

CC(=O)Oc1cccc(OC(C)=O)c1OC(C)=O
inactive: dose: 100.0 mg/kg/injection, schedule: Q01DX009 (ip), vehicle: Klucel (hydroxypropylcellulose) (HPC) 103 % of control | [1] 107 % of control | dose: 200.0 mg/kg/injection, schedule: Q01DX009 (ip), vehicle: Klucel (hydroxypropylcellulose) (HPC) 100 % of control | [2] 97 % of control | dose: 400.0 mg/kg/injection, schedule: Q01DX009 (ip), vehicle: Klucel (hydroxypropylcellulose) (HPC) 97 % of control | [3] 100 % of control

Cc1ncc(CO)c(/C=N\OCc2cc(Cl)sc2Cl)c1O
inactive: [1] 93 % of control | [2] 93 % of control | [3] 104 % of control

Cc1ccc(S(=O)(=O)N(c2ccccc2)C(C)C(=O)c2ccccc2)cc1 (centres undefined)
inactive: [4] 104 % of control | [5] 92 % of control | [6] 95 % of control

Clc1ccc(-n2cnnn2)cc1
inactive: [7] 98 % of control | [8] 98 % of control

NC(N)=N/N=C(\CBr)c1ccc([N+](=O)[O-])cc1
inactive: dose: 15.0 mg/kg/injection, schedule: Q01DX Z (ip), vehicle: carboxymethylcellulose (CMC) 97 % of control | dose: 30.0 mg/kg/injection, schedule: Q01DX Z (ip), vehicle: carboxymethylcellulose (CMC) 92 % of control | dose: 30.0 mg/kg/injection, schedule: Q01DX Z (oral), vehicle: carboxymethylcellulose (CMC) 100 % of control | dose: 60.0 mg/kg/injection, schedule: Q01DX Z (ip), vehicle: carboxymethylcellulose (CMC) 98 % of control and 91 % of control | dose: 60.0 mg/kg/injection, schedule: Q01DX Z (oral), vehicle: carboxymethylcellulose (CMC) 103 % of control | dose: 120.0 mg/kg/injection, schedule: Q01DX Z (ip), vehicle: carboxymethylcellulose (CMC) 92 % of control | dose: 120.0 mg/kg/injection, schedule: Q01DX Z (oral), vehicle: carboxymethylcellulose (CMC) 102 % of control | dose: 240.0 mg/kg/injection, schedule: Q01DX Z (oral), vehicle: carboxymethylcellulose (CMC) 92 % of control

COc1ccc(C(CC(=O)O)c2cc(OC)c(OC)c(OC)c2)cc1OC (centres undefined)
inactive: dose: 100.0 mg/kg/injection, schedule: Q01DX001 (ip), vehicle: carboxymethylcellulose (CMC) 92 % of control | dose: 200.0 mg/kg/injection, schedule: Q01DX001 (ip), vehicle: carboxymethylcellulose (CMC) 93 % of control | dose: 400.0 mg/kg/injection, schedule: Q01DX001 (ip), vehicle: carboxymethylcellulose (CMC) 93 % of control

CCCCOC(=O)c1ccc(NC(=O)Nc2cc([N+](=O)[O-])ccc2F)cc1
inactive: [9] 93 % of control | [10] 104 % of control | dose: 400.0 mg/kg/injection, schedule: Q04DX002 (ip), vehicle: Klucel (hydroxypropylcellulose) (HPC) 93 % of control

CCCCC#CC(O)(C(=O)OC)c1ccccc1 (centres undefined)
inactive: [4] 107 % of control | [5] 110 % of control | [6] 94 % of control

Cc1cc(Cl)ccc1OCC(=O)Oc1c(Cl)c(Cl)c(Cl)c(Cl)c1Cl
inactive: [9] 93 % of control | [10] 112 % of control

CCOC(=O)C1C(=O)NC(=O)CC1C (centres undefined)
inactive: dose: 100.0 mg/kg/injection, schedule: Q04DX003 (ip), vehicle: saline with Tween-80 98 % of control | dose: 200.0 mg/kg/injection, schedule: Q01DX009 (ip), vehicle: saline with Tween-80 100 % of control | dose: 200.0 mg/kg/injection, schedule: Q04DX003 (ip), vehicle: saline with Tween-80 96 % of control | dose: 400.0 mg/kg/injection, schedule: Q01DX009 (ip), vehicle: saline with Tween-80 101 % of control | dose: 400.0 mg/kg/injection, schedule: Q04DX003 (ip), vehicle: saline with Tween-80 104 % of control

Cc1n(-c2ccccc2)c2ccccc2[n+]1[O-]
inactive: [7] 101 % of control | [8] 101 % of control | dose: 400.0 mg/kg/injection, schedule: Q01DX001 (ip), vehicle: saline 101 % of control

COc1ccccc1N=Nc1c(O)n(-c2ccccc2OC)c(=S)n(-c2ccccc2)c1=O
inactive: dose: 100.0 mg/kg/injection, schedule: Q01DX001 (ip), vehicle: Klucel (hydroxypropylcellulose) (HPC) 96 % of control | dose: 200.0 mg/kg/injection, schedule: Q01DX001 (ip), vehicle: Klucel (hydroxypropylcellulose) (HPC) 94 % of control

From PubChem BioAssay AID248 (DTP/NCI, 2004)
